Series [1] can be described thus: Phase I single- and multiple-dose studies in healthy men. In kind it is in vivo, human.
The subject of series [2] is left ventricular [3H] CGP-12177 binding sites. Kind of series: [3H] CGP-12177 saturation binding in left ventricle membranes of treated dogs. Also on record: species or system beagle dogs. Particulars: 10 mg/kg/day for 4.5 days. The procedure:
Ventricles were homogenized in 50 mM Tris-HCl, 5 mM Na2EDTA buffer (pH 7.4 at 4° C.) using a Polytron P-10 tissue disrupter (setting 10, 2×15 second bursts). Homogenates were centrifuged at 500×g for 10 minutes and the supernatants stored on ice. The pellets were washed by resuspension and centrifugation at 500×g and the supernatants combined. The combined supernatants were centrifuged at 48,000×g for 20 minutes. The pellets were washed by resuspension and centrifugation once in homogenizing buffer and twice in 50 mM Tris-HCl, 0.5 mM EDTA buffer (pH 7.4 at 4° C.). Membranes were stored at −70° C. until required. Saturation experiments were conducted using [^3H] CGP-12177 in buffer containing 50 mM Tris-HCl, 0.5 mM EDTA (pH 7.4 at 32° C.). Non-specific binding was defined by 10 μM isoproterenol. Total bound, non-specific bound and total count tubes were set up for eight concentrations of [^3H] […] Aquasol scintillation fluid was added to each vial and radioactivity determined by liquid scintillation counting. Saturation binding isotherms were analyzed after first converting total ligand concentrations to free ligand concentrations (total−bound=free). […] Tissue catecholamine levels were analyzed by comparing nepicastat-treated groups with the placebo (control) treated groups. […] Additionally, a linear orthogonal contrast was calculated for all three doses within the context of a one-way ANOVA. […]

For series [3], the system named is normotensive Wistar-Kyoto rats. The experiment in a line: Blood pressure in conscious, restrained Wistar-Kyoto rats. The following applies: 10 mg/kg. In kind it is in vivo. The text has this: To summarize together, nepicastat causes a decrease in blood pressure in both SHRs and normotensive rats, though the antihypertensive effect is more pronounced in SHRs.

Series [4] concerns mice. Kind of series: Clinical observations and behavioral tests in mice, single oral dose. In kind it is in vivo. The protocol:
A single oral dose of vehicle or nepicastat formulation was administered by gavage to each mouse using a rodent intubator. The oral route was selected because it is a proposed clinical route of administration. Dose volumes were calculated on the basis of individual body weights recorded before dosing (body weight data are not tabulated in this report). Food and water were withheld from the mice 2.5 to 3.5 hours before dosing, instead of 1.5 hours as specified in the protocol.
Clinical observations were recorded before dosing. Beginning 60 minutes after dosing, mice in each treatment group were evaluated in groups of up to 3 over an interval of approximately 10 minutes each for clinical observations and protocol-specified behavioral tests. One mouse in the 30-mg/kg group and 1 mouse in the 100-mg/kg group died after dosing and they were removed from the study. Surviving mice were euthanatized and removed from the study at the end of the observation/testing period.
[…] Clinical observations and behavioral tests were initiated 60 minutes after administration of the test formulation. At the end of the observation period, all surviving mice were euthanatized and removed from the study.

The subject of series [5] is mesenteric artery catecholamines and sympathetically-evoked responses. The experiment in a line: Anesthetized beagle dogs, 30 mg/kg intraduodenally. In kind it is in vivo.
Setting [6] is: 30, 100, 300 mg/kg single oral dose.

Each structure is given as a SMILES string.

For the compound `Cl.NCc1c[nH]c(=S)n1[C@H]1CCc2c(F)cc(F)cc2C1` [nepicastat, (S)-5-Aminomethyl-1-(5,7-difluoro-1,2,3,4-tetrahydronaphth-2-yl)-2,3-dihydro-2-thioxo-1H-imidazole hydrochloride], the “subjects who developed a rash” value in series [1] (200 mg for 8 days or longer) is “Five of the 6 subjects”. In addition, the “tolerability, multiple-dose Phase I study” value in series [1] (5 and 40 mg, healthy men) is recorded as “generally well tolerated”. Also, the “effect on mood, sleep, cognition” value in series [1] (5 or 40 mg) was “no significant impairment of mood, sleep, or cognition”. Besides, the “tolerability, single-dose Phase I studies” value in series [1] (5 to 800 mg, healthy men) is given as “generally well tolerated”. For the same compound, the “cardiac adverse event in one subject” value in series [1] (after 6 days of dosing with 200 mg) was “atrial arrhythmias and intermittent right bundle branch block”. The “left ventricular binding, treated vs vehicle group” value in series [2] is recorded as “no difference”. The “decrease in blood pressure 4 hours after dosing” value in series [3] is given as −13 mmHg. Also, in series [4] (setting [6]), the “clinical or gross behavior changes” value is reported as “No treatment-related clinical or gross behavior changes” and the “rectal body temperature vs vehicle-control” value is “Lower body temperatures”. In series [4] (acute 1.0-30 mg/kg p.o.), the gross motor behavior entry was “no significant effects on gross motor behavior”. Further, the deaths after dosing entry in series [4] (one mouse each at 30 and 100 mg/kg) is recorded as “the deaths were considered incidental”. Moreover, the “responses to renal nerve stimulation and carotid artery occlusion” value in series [5] (30 mg/kg intraduodenally, up to 5 hours) is “did not significantly inhibit”. In addition, the mesenteric artery catecholamines result in series [5] (5 hours after 30 mg/kg intraduodenally) is “significant decrease in norepinephrine levels and an increase in the dopamine/norepinephrine ratio”.

(Values after patent publication US10561638B2, “Methods for treating dependence” (Biotie Therapies, Inc., priority 2007, dated 2020).)
